Results on 1 compound are retold here after patent publication US12110289B2, “Heterocyclic compounds, preparation methods and uses thereof” (InventisBio Co., Ltd., priority 2020, dated 2024).

A word on the Cmax: it is the maximum level reached in the sampled fluid or tissue.

The subject of one data set is SW837 xenograft. As to the kind of experiment: Colorectal adenocarcinoma SW837 xenograft model, tumor volume. The class given is in vivo, BALB/c nude mice. Particulars: 30 mg/kg oral once daily vs AMG510 at 60 mg/kg; FIG. 1. As for the experimental part:
(§1) All the procedures related to animal handling, care and the treatment in this study were performed according to the guidelines approved by the Institutional Animal Care and Use Committee (IACUC) of SIPPER B&K following the guidance of the Association for Assessment and Accreditation of Laboratory Animal Care (AAALAC). At the time of routine monitoring, the animals were checked for any effects of tumor growth on normal behavior such as mobility, food and water consumption (by looking only), body weight gain/loss (body weights were measured twice weekly), eye/hair matting and any other abnormal effect. Death and observed clinical signs were recorded on the basis of the numbers of animals within each subset.
(§2) The NCI-H358, SW837, NCI-H2122 tumor cells were purchased from the American Type Culture Collection (ATCC). Cells were maintained in vitro as monolayer cultured in RPMI-1640 or DMEM medium supplemented with 10% fetal bovine serum, 50 IU/ml penicillin/streptomycin (GIBCO) at 37° C. in an atmosphere of 5% CO2 in air. The tumor cells were routinely sub cultured twice weekly by trypsin-EDTA treatment. The cells growing in an exponential growth phase were harvested and counted for tumor inoculation.
(§3) For tumor bearing models, female 6- to 8-week-old athymic BALB/c nude mice were used for human cancer cell lines. Each mouse was inoculated subcutaneously at the right flank with tumor cells (10×10^6) in 0.1 ml of PBS. The treatments were started when the average tumor size reached approximately 200-250 mm^3. Carboplatin, Cisplatin was injected twice a week by i.p. Vehicles and other test articles were given orally as a suspension by gavage once daily during the study or treatment period.
(§4) Tumor volume was calculated by measuring two perpendicular diameters using the following formula: (L×W 2)/2 in which L and W refer to the length and width tumor diameter, respectively. Results are expressed as mean and standard deviation of the mean.

A further data set deals with NCI-H358 xenograft. As to the kind of experiment: NSCLC H358 xenograft model, tumor volume. It is filed as in vivo, BALB/c nude mice. The settings on record: for reduction of tumor volume, combined treatment vs either agent alone: FIG. 5. As for the experimental part:
as §1, §2, §3, §4

The nature of data set [1]: Rat PK study, single i.g. dose. It is filed as in vivo. The settings on record: female, SD, plasma, PO, 10 mg/kg. As to the method:
The pharmacokinetic (PK) profile of compounds following single i.g in SD rat obtained from […] Laboratory Animal Co., LTD of Shanghai was determined. Three female rats of weight around 220 g were used. Compounds were prepared at 1 mg/ml with the formulation of 10% DMSO+10% solutol HS15+80% (10% HPβCD in water). Blood samples (0.2 mL) were collected at 0 h (pre-dose) and 0.25, 0.5, 1, 2, 4, 8, 24 h time points after administration of compounds at the dose of 10 mg/kg. The collected blood samples were centrifuged without delay and the plasma was separated and transferred into tubes before storage at -70° C. prior to analysis. Aliquots of the plasma unknowns, blank and calibration standards were placed in 1.5 mL tubes and mixed with acetonitrile/methanol (1/1, v/v) containing IS. After vortexing for 5 min, each sample was centrifuged at 14000 rpm at 4° C. for 10 min. The supernatant were injected into the LC-MS/MS system. […] Eluates were analyzed using an API4000 Q-Trap mass spectrometer with a TurboIonSpray interface. Chromatographic separation was done with a mobile phase composed of water with 0.1% formic acid (solution A) and acetonitrile with 0.1% formic acid (solution B). The mobile phase was delivered at a flow rate of 0.6 mL/min, using a stepwise gradient elution program. To improve the sensitivity of the test compound screening, a MRM method in positive electrospray ionization mode was employed. Mass spectrometry data was acquired and analyzed using AB Sciex Analyst version 1.6.2 software. The pharmacokinetic parameters were derived using standard noncompartmental methods with Phoenix WinNonLin Professional Version 8.1.

For the compound `C=CC(=O)N1C[C@H](C)N(c2nc(=O)n(-c3c(C4CC4)ncnc3C3CC3)c3nc(-c4c(N)cccc4F)c(Cl)cc23)C[C@H]1C` [Compound 126], the “reducing tumor volume compared with AMG510” value with SW837 xenograft is reported as “more effective than AMG510”; with NCI-H358 xenograft (30 mg/kg oral once daily vs AMG510 at 30 mg/kg, FIG. 2) it was “more effective than AMG510”. Also, the “reduction of tumor volume, combined treatment vs either agent alone” value in the data set with NCI-H358 xenograft (Compound 126 at 5 mg/kg combined with RMC-4550 at 10 mg/kg) and in the data set on NCI-H358 xenograft (Compound 126 at 5 mg/kg combined with cisplatin at 2 mg/kg) was “much better reduction of tumor volume” in each case. Also, the AUC(0-t) in data set [1] (read-out: Rat PO (10 mpk) AUC last) was determined as 3.8 µM·h. In addition, in data set [1] (read-out: Rat PO (10 mpk) Cmax), the Cmax is 1060 nM. Besides, the bioavailability in data set [1] (read-out: Rat PO (10 mpk) F %) was 54%.
